Marks after values point to notes of the source that are not given here.
Assays:
albumin = albumin (Homo sapiens, UniProt P02768); conditions: drugs which bind to albumin at site 1; cited from earlier work
cytochrome P450 IIB1 = assay: Hexobarbital sleep time and biodistribution in rats given antisense oligos to cytochrome P450 IIB1 with or without PESDA microbubbles; format: in vivo, rat; conditions: PB alone × 2 days, 100 mg/kg HB i.p., control rats about 23 minutes
Description: The oligonucleotides were conjugated to perfluoropropane exposed sonicated dextrose albumin microbubbles (PESDA) as earlier described and delivered to rats intravenously.
Male Sprague-Dawley rats (Sasco, Omaha), were used and weighed between 210 to 290 grams for all studies. […] The animals were exposed to 12 hour light/dark cycle and allowed access to Purina rat chow and tap water ad libitum.
Rats in groups with PB were injected intraperitoneally with phenobarbital (Mallinckrodt, St. Louis) at 80 ml/kg/day×2 days. The PB injections were given simultaneously with the ODN-microbubble injections. Phosphorothioate ODN injections were 1 ml/kg/day×2 days. Sleep times were measured 48 hours after the first injection. The rats were injected intraperitoneally with 100 ml/kg hexobarbital (Sigma, St. Louis), paired fresh daily. The volume of this injection is 1 ml/kg body weight.
Each rat was injected with 100 mg/kg of hexobarbital intraperitoneally. The animals were placed on their backs to insure that they were still under sedation from the hexobarbital. Sleep time is defined as the time they are placed on their backs to the time when they roll over. The sleep times listed are the mean of each animal in the group±standard deviation.
As described earlier, 100 mg/kg HB was injected i.p. to each animal at the end of 2 days of treatment with PB and/or the ODNs.

[1] = biological target: T1, albumin of PESDA microbubbles (Homo sapiens, UniProt P02768); assay: Partitioning of 35S-labeled PS-ODN between PESDA microbubble top layer and lower layer, liquid scintillation counting; format: binding; conditions: for BOTTOM / TOP: N 6; for TOP: top layer containing microbubbles
T1 construct: commercially available albumin (human), U.S.P. solution (generally supplied as 5% or 25% by weight sterile aqueous solutions); purchased
T1 sequence (P02768 25-609): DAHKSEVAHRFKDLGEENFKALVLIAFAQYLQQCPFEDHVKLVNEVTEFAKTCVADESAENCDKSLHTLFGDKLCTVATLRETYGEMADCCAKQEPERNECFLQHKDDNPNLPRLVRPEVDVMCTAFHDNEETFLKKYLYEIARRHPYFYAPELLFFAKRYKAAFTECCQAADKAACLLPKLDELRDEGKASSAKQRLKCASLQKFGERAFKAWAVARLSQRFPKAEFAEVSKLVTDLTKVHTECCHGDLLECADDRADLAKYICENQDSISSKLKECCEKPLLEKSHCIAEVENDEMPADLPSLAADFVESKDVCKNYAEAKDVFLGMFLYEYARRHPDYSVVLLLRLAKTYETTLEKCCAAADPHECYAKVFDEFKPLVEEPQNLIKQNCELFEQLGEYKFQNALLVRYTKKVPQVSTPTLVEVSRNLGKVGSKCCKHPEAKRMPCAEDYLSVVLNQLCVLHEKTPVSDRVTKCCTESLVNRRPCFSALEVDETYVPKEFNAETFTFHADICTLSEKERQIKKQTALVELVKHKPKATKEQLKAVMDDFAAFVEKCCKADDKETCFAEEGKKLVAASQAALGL
Description: Radiolabeled oligonucleotides were synthesized as hydrogen phosphonate material by Glen Research (Bethesda, Md.) The uniformly ^35S-labeled PS-ODN with sequences 5′-TATGCTGTGCCGGGGTCTTCGGGC 3′ (24-mer complementary to c-myb) (SEQ ID NO:2) and 5′ TTAGGG 3′ (SEQ ID NO:3) were incubated in a final volume of 0.5 ml with the perfluorocarbon-exposed sonicated dextrose albumin microbubble solution for 30 minutes at 37° C. The solutions were allowed to stand so that the bubbles could rise to the top and 100 microliters were removed from the clear solution at the bottom and 100 microliters were removed from the top containing the microbubbles.
Five percent human serum albumin and five percent dextrose were obtained from a commercial source. Three parts of 5% dexticse and one part 5% human serum albumin (total 16 milliliters) were drawn into a 35-milliliter Monojet syringe. Each dextrose albumin sample was hand agitated with 8±2 milliliters of either a fluorocarbon gas (decafluorobutane; molecular weight 238 grams/mole) or 8±2 milliliters of room air, and the sample was then exposed to electromechanical sonication at 20 kilohertz for 80±5 seconds. The mean size of four consecutive samples of the perfluorocarbon-exposed sonicated dextrose albumin (PESDA) microbubbles produced in this manner, as measured with hemocytometry was 4.6±0.4 microns, and mean concentration, as measured by a Coulter counter was 1.4×10^9 bubbles/milliliter. The solution of microbubbles was then washed in a 1000 times volume excess of 5% dextrose to remove albumin which was not associated with the microbubbles. The microbubbles were allowed four hours to rise. The lower solution was then removed leaving the washed foam. The washed foam was then mixed with 0.9% sodium chloride.
Radioactivity in solutions were determined by liquid scintillation counting in a liquid scintillation counter (model LSC7500; Beckman Instruments GmbH, Munich, Germany). The sample volume was 100 μl to which 5 ml of Hydrocount biodegradable scintillation cocktail was added and mixed. Samples were counted immediately after each experiment and then again 24 hours later in order to reduce the influence of chemiluminescence and of quenching.

human serum albumin = human serum albumin (Homo sapiens, UniProt P02768); conditions: cited from earlier work
Sequence of human serum albumin (P02768 25-609): as the sequence (P02768 25-609) above

[2] = bubbles in the presence of free albumin
[3] = bubbles in the presence of free albumin, lower clear layer
[4] = washed bubbles (no free albumin)
[5] = washed bubbles (no free albumin), lower layer

Sequence of albumin (P02768 25-609): as the sequence (P02768 25-609) above

CN1C(C(=O)Nc2ccccn2)=C(O)c2ccccc2S1(=O)=O [Piroxicam]
% Albumin Binding (albumin): 99.3%

Clc1ccc(COC(Cn2ccnc2)c2ccc(Cl)cc2Cl)c(Cl)c1 (stereo not drawn) [Miconazole]
% Albumin Binding (albumin): 90.7–93.1* %

CCC1(c2ccccc2)C(=O)NC(=O)NC1=O [PB, phenobarbital]
sleep time (cytochrome P450 IIB1): about 11.4±4.5 minutes

5′-TATGCTGTGCCGGGGTCTTCGGGC 3′ (antisense TATGCTGTGCCGGGGTCTTCGGGC; phosphorothioate backbone, 35S label, further chemistry not given here) [c-myb, uniformly 35S-labeled PS-ODN, 24-mer complementary to c-myb]
RATIO T/B [1, 2]: 1.35 | BOTTOM [1, 3]: 77.3 ± 1.2 cpm/μl | TOP [1, 2]: 94.1 ± 17.6 cpm/μl | RATIO T/B [1, 4]: 2.16 | BOTTOM [1, 5]: 92.7 ± 15.7 cpm/μl | TOP [1, 4]: 200.3 ± 37.4 cpm/μl

5′d(AACGTTGAGGGGCAT)-3′ [15 mer PS-ODN]
binding to human serum albumin in solution (dissociation constant range) (human serum albumin): 3.7−4.8×10−5

NS(=O)(=O)c1cc(C(=O)O)c(NCc2ccco2)cc1Cl [Furosemide]
% Albumin Binding (albumin): 98.8%

5′ TTAGGG 3′
RATIO T/B [1, 2]: 1.35 | BOTTOM [1, 3]: 92.3 ± 6.4 cpm/μl | TOP [1, 2]: 125 ± 6.4 cpm/μl | RATIO T/B [1, 4]: 1.67 | BOTTOM [1, 5]: 126 ± 8.7 cpm/μl | TOP [1, 4]: 210 ± 10.8 cpm/μl

O=C1NC(=O)C(c2ccccc2)(c2ccccc2)N1 [Phenytoin]
% Albumin Binding (albumin): 89.0%

Cc1noc(NS(=O)(=O)c2ccc(N)cc2)c1C [Sulfisoxazole]
% Albumin Binding (albumin): 91.4%

CCCC(CCC)C(=O)O [Valproic Acid]
% Albumin Binding (albumin): 93.0%

CO/N=C(\C(=O)N[C@@H]1C(=O)N2C(C(=O)O)=C(CSc3nc(=O)c(=O)[nH]n3C)CS[C@H]12)c1csc(N)n1 [Ceftriaxone]
% Albumin Binding (albumin): 90–95* %
